From patent US20260108547A1, “LEVERAGING L-FUCOSE-MEDIATED SIGNALING TO INDUCE MONOCYTE-DERIVED DENDRITIC CELL POLARIZATION” (H. LEE MOFFITT CANCER CENTER AND RESEARCH INSTITUTE, INC., priority 2022, published 2026)

How the values were obtained:
SW1 tumors [1] = assay: SW1 tumor growth in NSG (immunodeficient) mice; type: in vivo, mouse
Excerpt: All animals were housed at the Vincent A. Stabile Research building animal facility at H. Lee Moffitt Cancer Center & Research Institute, which is fully accredited by the Association for Assessment and Accreditation of Laboratory Animal Care International (AAALAC, #434), and are managed in accordance with the Guide for the Care and Use of Laboratory Animals (“The Guide”), the Animal Welfare Regulations Title 9 Code of Federal Regulations Subchapter A, “Animal Welfare”, Parts 1-3 (AWR), the Public Health Service Policy on Humane Care and Use of Laboratory Animals (PHS Policy), and by the USF Institutional Animal Care and Use Committee's Principles and Procedures of Animal Care and Use (IACUC Principles). The experiments and protocols detailed in this study received institutional approval by the Moffitt IACUC (RIS00001625). Four-to-six-week-old female C3H/HeN and male C57BL6 mice were purchased from Charles Rivers Laboratories for the indicated experiments. Four-to-six-week-old male NSG mice from the Lau laboratory breeding colony were used for the indicated experiments. Power calculations were used to determine mouse cohort sizes to detect significant changes in tumor sizes. […] Mouse tumor volumes were measured using length, width and depth divided by 2. […]

SW1 tumors [2] = assay: Immunofluorescent (AAL) analysis of mouse tumor tissue fucosylation; type: in vivo; settings: oral L-fuc; SW1 model
Description: In general, paraffin-embedded FFPE tumor tissue sections (or the TMA slide) were melted at 70° C. for 30 min. The slides were further de-paraffinizeded using xylene and rehydrated in serial alcohol washes. The slides were pressure cooked at 15 PSI for 15 min in a 1×DAKO antigen retrieval buffer (Agilent Technologies (Santa Clara, CA)). The tumor sections were subject to two 5-min standing washes in PBS prior to blocking in 1× Carb-Free Blocking Solution (Vector Labs (Burlingame, CA)) for 2-3h. The slides were next washed twice and incubated with indicated lectin and/or antibodies.
For assessment of mouse tumor fucosylation, FFPE tumor sections were immunostained with FITC-conjugated AAL lectin (0.4 μg/mL, Vector Laboratories (Burlingame, CA)) and rabbit anti-Mart1+rabbit anti-S100 (melanoma marker cocktail). The slides were mounted with Vectashield+DAPI (Vector Laboratories (Burlingame, CA)). Four representative microscopy images per tumor were acquired using a Keyence BZ-X710, and images were process and analyzed using FUI (NIH) as follows: melanoma marker-positive regions were assigned as regions of interest (ROI) in which we measured Integrated density of AAL signal. Integrated densities of control tumors were assigned as 1, and Integrated AAL density values of experimental tumors were divided by control to produce relative fold changes and plotted as column charts.

HLA-DRB1 [3] = assay: Flow cytometric assessment of cell surface fucosylation and HLA-DRB1 in melanoma cells; type: cell-based, human; settings: 250 μM, 72 h; flow cytometry
Description: Indicated cells were treated for 72 h with DMSO, 250 μM fucosyltransferase inhibitor (FUTi) (Millipore Sigma (St. Louis, MO)), or 250 μM of L-fucose (Biosynth (Oak Terrace, IL)). After 72 h, cells were stained with 0.1 μM PKH26 (Millipore Sigma (St. Louis, MO)) prior to fixation in 4% formaldehyde solution. The cells were stained with anti-HLA-DRB1 and fluorescein AAL, or anti-human or anti-mouse PD-L1 overnight. The following day the cells were washed 3 times prior to adding AlexaFluor 594 donkey anti-rabbit. Cells were washed 3 times and then subject to flow cytometric analyses using a FACSCalibur (BD Biosciences (San Jose, CA)). Samples were analyzed using FlowJo analysis software (BD Biosciences (San Jose, CA)). Median values of DRB1 and AAL were normalized to PKH26 values and statistical analysis was performed using GraphPad Prism.

HLA-DRB1 [4] = assay: qRT-PCR and immunoblot of HLA-DRB1 mRNA and protein levels in melanoma cells; type: cell-based, human; settings: 250 μM
Description: Cells were lysed on ice in RIPA lysis buffer (25 mM Tris-HCl pH 7.6, 150 mM NaCl, 5 mM EDTA, 1% NP-40 or 1% Triton X-100, 1% sodium deoxycholate, 0.1% SDS in diH2O+protease and phosphatase inhibitors (ThermoFisher Scientific (Waltham, MA)), briefly sonicated, pelleted, and the resulting lysates were normalized by protein concentration using DC assay (BioRad Laboratories, (Hercules, CA)). The indicated samples were subjected to (12%) SDS-PAGE and immunoblot analysis using the indicated antibodies. Immunoblot imaging and analysis was performed using either an Odyssey FC scanner and ImageStudio (LiCor Biosciences, Lincoln, NE) or film.
RNA from cells subjected to the indicated treatments was extracted using Gene Elute Mammalian Total RNA Extraction System (Millipore Sigma (St. Louis, MO)). RNA was reversed transcribed to cDNA using High-Capacity cDNA Reverse Transcription Kit (ThermoFisher Scientific (Waltham, MA)). qRT-PCR analysis was performed using FastStart Universal SYBR Green Master Mix (Rox) (Roche Diagnostics, (Indianapolis, IN)) using a BioRad CFX96 Real-time system (BioRad Laboratories, (Hercules, CA)). The qRT-PCR cycles used were as follows: 95° C. for 10 min, 35 cycles of 95° C. for 15 seconds, 55° C. for 60 seconds,
and 72° C. for 30 seconds. Expression of the indicated genes was normalized to histone H3A expression. […]

SW1 tumor cells = assay: Co-culture of pretreated moDCs with GFP-expressing SW1 tumor cells (GFP loss, LDH release); type: cell-based, mouse; settings: loss of GFP fluorescence
Excerpt: We next sought to determine if the change in phagocytosis we observe in the bead uptake assay was accompanied with increased cytotoxic tendencies in the L-fucose-treated moDCs. To this end we co-cultured pretreated moDCs with GFP-expressing SW1 tumor cells to observe (FIG. 26C) loss of GFP fluorescence correlating with SW1 and (FIG. 26D) release of LDH as markers of cell death.

[5] = Mouse models of tumor growth and metastasis, dietary L-fucose supplementation; type: in vivo

C[C@H](O)[C@@H](O)[C@@H](O)[C@H](O)C=O [L-fucose]
SW1 tumor growth in immunodeficient mice (SW1 tumors [1]): did not reduce
increased tumor fucosylation (SW1 tumors [2]): ~2 fold
cell surface HLA-DRB1 (HLA-DRB1 [3]): increased
cell surface fucosylation (HLA-DRB1 [3]): increased
HLA-DRB1 mRNA and protein levels (HLA-DRB1 [4]): remained unchanged
phenotype of moDCs in co-culture with SW1 tumor cells (SW1 tumor cells): cytotoxic-like phenotype
blocks tumor growth and metastasis [5]: > 50%
